With `Cc1c(CNc2ccc(Cl)cc2)cnc2nc(N)nc(N)c12`, the logP was 2.03.
Take `Cc1cc(NCc2cnc3nc(N)nc(N)c3c2C)ccc1Cl`: the logP came out at 2.03.
In turn, `Cc1cc(C)cc(NCc2cnc3nc(N)nc(N)c3c2C)c1` displayed a log partition coefficient (logP) of 2.11.
The molecule `Cc1c(CNc2cccc(Cl)c2Cl)cnc2nc(N)nc(N)c12` came in with a logP of 2.1.
`Cc1ccc(C)c(NCc2cnc3nc(N)nc(N)c3c2C)c1` returned a logP of 2.29.
Molecule `Cc1ccc(NCc2cnc3nc(N)nc(N)c3c2C)cc1Cl` came in with a logP of 2.03.
The figure for `Cc1c(CNc2ccc(Cl)c(Cl)c2)cnc2nc(N)nc(N)c12` is 2.06; for `Cc1ccccc1NCc1cnc2nc(N)nc(N)c2c1C` it is 1.98; for `Cc1cccc(Cl)c1NCc1cnc2nc(N)nc(N)c2c1C` it is 2.05.
`Cc1c(Cl)cccc1NCc1cnc2nc(N)nc(N)c2c1C`: the logP stood at 2.04.
Take `Cc1c(CNc2c(Cl)cccc2Cl)cnc2nc(N)nc(N)c12`: the lipophilicity (logP) came to 2.
`CC(=O)c1cccc(NCc2cnc3nc(N)nc(N)c3c2C)c1` had a log partition coefficient (logP) of 1.46.
Molecule `CCOc1ccccc1NCc1cnc2nc(N)nc(N)c2c1C` gave a log partition coefficient (logP) of 2.07.
`CC(=O)c1ccc(NCc2cnc3nc(N)nc(N)c3c2C)cc1`: the logP is 1.45.
Molecule `Cc1c(CNc2ccccc2)cnc2nc(N)nc(N)c12` displayed a lipophilicity (logP) of 2.02.

As a reminder, the logP is the decadic logarithm of the partition coefficient of the neutral form, usually between octanol and water. Read a low logP as lower lipophilicity.

The record behind these values is the SangsterLogP compilation.
